Data as given in US8993626B2, “Methods of treatment using sterculic acid” (The United States of America, as represented by the …, priority 2010, dated 2015).
“Also recorded” adds a separate entry of the source.

Key:
[1] = tested on: Human retinal pigment epithelial (RPE) cells (ARPE-19); test: Microarray-based gene expression analysis of sterculic acid treated RPE cells; format: cell-based; conditions: 10 μM sterculic acid, 72 h
Description: Human retinal pigment epithelial (RPE) cells (ARPE-19) obtained from ATCC (Manassas, Va.) were grown in Dulbecco's Modified Eagle's Medium (DMEM) containing nutrient mixture F12 (Cellgro, Va.) supplemented with 5% fetal bovine serum, penicillin (100 U/ml) and streptomycin (100 μg/ml). Cells were seeded at a density of 2×10^5 cells/ml in complete medium and allowed to grow overnight. The culture medium was replaced next day with fresh medium before treating with 10 μM of sterculic acid dissolved in DMSO. The controls received the same amount of DMSO. After 72 h, total RNA, 100 ng, was amplified according to Affymetrix's small sample protocol, and 20 μg of cRNA was then hybridized on each NEI GeneChip microarray. After hybridization, GeneChip array was washed, stained with streptavidin-PE (Molecular Probes), amplified with biotinylated anti-streptavidin antibody and scanned with an argon ion Confocal Laser at 570 nm (Affymetrix). Affymetrix GeneChip Operating software was used for absolute expression and to normalize the gene expression levels between any two samples. Data were then incorporated into GeneSpring software 7.2 ([…]) for chip normalization, filtering and cluster analysis.

[2] = tested on: stearoyl-CoA desaturase (SCD); test: SCD mRNA expression (qRT-PCR); format: cell-based
Description: FIGS. 18A and 18B depict (A) Dose response of SCD mRNA inductions by 0-12 μM 7KCh after 24 hr treatments. (B) The mRNA expressions of SCD in response to 8 μM 7KCh, 1 μM sterculic acid, 1 μM stearic acid, or the combinations of 7KCh with either sterculic acid or stearic acid. Error bars indicate the standard deviations. n=4.
The RNA was extracted using RNeasy Mini Kit (Qiagen, Valencia, Calif.). The reverse transcription was performed with reagents and kits from Invitrogen. Quantification of mRNA expression was performed using the Taqman gene expression assays and the following primers (VEGFa, Hs00173626_m1; IL-1β, Hs01555413_m1; IL-6, Hs00174131_m1; IL-8, Hs00174103_m1; IκBα, Hs00153283_m1; GRP78, Hs99999174_m1; CHOP, Hs01090850_m1; NOX2, Hs00166163_m1; NOX4, Hs01558199_m1; SCD, Hs00748952 s1; TNF-α, Hs00174128_m1; TGF-β1, Hs00998133_m1; GAPD, 4352934e). GAPD expression was used as an endogenous standard. All qRT-PCR experiments were measured in triplicates in an ABI 7500 Real-Time PCR Instrument (Applied Biosystems, Foster City, Calif.). The results of each treatment were normalized and presented in percentage relative to the vehicle-only control.
To determine the effect of 7KCh on SCD expression ARPE-19 cells were incubated with 4 μM 7KCh for 24 hr. 7KCh suppressed SCD mRNA expression by approximately 60-70% (FIG. 18A). […] Treatment of the cells with 8 μM 7KCh and 1 μM sterculic acid further suppress SCD expression to 86% (FIG. 18B). […] This is the only instance where 7KCh and sterculic acid worked synergistically rather than antagonistically.

[3] = tested on: Leukemia, SR-91; test: NCI in vitro anti-cancer cell line screen (SRB); conditions: Homo sapiens, 48 h
Description: (§1) The human tumor cell lines used in the cancer screen panel were grown in RPMI 1640 medium containing 5% FBS and 2 mM L-glutamine. The cells were inoculated into 96-well microtiter plates in 100 μl at plating density ranging from 5000 to 40,000 cell/well. […] Following drug addition, the plates were incubated for an additional 48 h. The assay was terminated by the addition of cold 10% TCA. The supernatant was discarded, and the plates were washed five times with water and air dried. Sulforhodamine B (SRB) solution (100 μl) at 0.4% (w/v) in 1% acetic acid was added to each well, and plates were incubated for 10 min at room temperature. After staining, unbound dye was removed by washing five times with 1% acetic acid and the plates were air dried. Bound stain was subsequently solubilized with 10 mM trizma base, and the absorbance was read on an automated plate reader at a wavelength of 515 nm.
(§2) A sulforhodamine B (SRB) end point was used to calculate the median growth inhibition (GI50). GI50 refers to the concentration at which the drug inhibits tumor cell growth by 50%.

[4] = tested on: Renal Cancer, RXF-393; test: NCI in vitro anti-cancer cell line screen (SRB); conditions: Homo sapiens, RXF 393, 48 h
Description: as §1, §2

[5] = tested on: ARPE19 cells; test: 7-ketocholesterol-mediated cytotoxicity, 24-well CCK-8 viability and images; conditions: 24 hr

**Q.** Which “Fold Change, ALDH3A1, down-regulated” value [1] does the source give for CCCCCCCCC1=C(CCCCCCCC(=O)O)C1 [sterculic acid, 8-(2-octacyclopropen-1-yl)octanoic acid] here?
**A.** The value was 7 fold.

**Q.** What about the “Fold Change, ALDH7A1, up-regulated” value [1] of the same compound?
**A.** Its value is 15 fold.

**Q.** What about the “Fold Change, ATF4, down-regulated” value [1] of the same compound?
**A.** Its value is 7 fold.

**Q.** And the “Fold Change, BMP7, up-regulated” value [1]?
**A.** The value was 6 fold.

**Q.** What about the “Fold Change, CRABP1, down-regulated” value [1] of the same compound?
**A.** The value was 8 fold.

**Q.** And the “Fold Change, CTSC, up-regulated” value [1]?
**A.** The value was 9 fold.

**Q.** And the “Fold Change, FNTA, up-regulated” value [1]?
**A.** The value was 4 fold.

**Q.** And the “Fold Change, GADD45B, down-regulated” value [1]?
**A.** The value was 7 fold.

**Q.** What about the “Fold Change, GOT2, up-regulated” value [1] of the same compound?
**A.** Its value is 5 fold.

**Q.** And the “Fold Change, HSPCA, up-regulated” value [1]?
**A.** Its value is 11 fold.

**Q.** What about the “Fold Change, HYOU1, down-regulated” value [1] of the same compound?
**A.** Its value is 10 fold.

**Q.** And the “Fold Change, IGFBP3, down-regulated” value [1]?
**A.** Its value is 3 fold.

**Q.** And the “Fold Change, MMP2, down-regulated” value [1]?
**A.** Its value is 7 fold.

**Q.** And the “Fold Change, MT1H, down-regulated” value [1]?
**A.** Its value is 8 fold.

**Q.** What about the “Fold Change, PALLD, up-regulated” value [1] of the same compound?
**A.** The value was 5 fold.

**Q.** And the “Fold Change, SCEL, up-regulated” value [1]?
**A.** Its value is 5 fold.

**Q.** What about the “Fold Change, SOD1, up-regulated” value [1] of the same compound?
**A.** The value was 5 fold.

**Q.** What about the “Fold Change, SUOX, up-regulated” value [1] of the same compound?
**A.** Its value is 3 fold.

**Q.** And the “Fold Change, VBP1, up-regulated” value [1]?
**A.** The value was 5 fold.

**Q.** What about the “inhibition of SCD expression” value ([2]; 1 μM sterculic acid alone) of the same compound?
**A.** Its value is “similarly to 8 μM 7KCh”.

**Q.** What about the “suppression of SCD expression” value ([2]; 8 μM 7KCh and 1 μM sterculic acid) of the same compound?
**A.** Its value is 86%.

**Q.** What about the GI50 [3] of the same compound?
**A.** Its GI50 is 10 µM.

**Q.** What about the GI50 [4] of the same compound?
**A.** Its GI50 is 10 µM.

**Q.** And the “protection of cell confluency and morphology (images)” value ([5]; 0.5 μM co-treatment with 12 μM 7KCh)?
**A.** Its value is “maintain both cell confluency and cell morphology similar to the control; also recorded: apparent protection”.

**Q.** What about the “protection of cell confluency and morphology (images)” value ([5]; 1 μM co-treatment with 12 μM 7KCh) of the same compound?
**A.** The value was “maintain both cell confluency and cell morphology similar to the control; also recorded: apparent protection”.

**Q.** And the “co-treatment concentration that completely offsets the 7KCh cytotoxic effect” value ([5]; 12 μM 7KCh, CCK-8)?
**A.** Its value is 1 µM.

**Q.** And the “concentration at which apparent protection is seen” value ([5]; 12 μM 7KCh, CCK-8)?
**A.** The value was 0.5 µM.
